Results reported in patent US20120295915A1, “AZABENZIMIDAZOLES AS FATTY ACID SYNTHASE INHIBITORS” (priority 2009, published 2012).

Target: FAS (Homo sapiens, UniProt P49327)
Assay: FAS assay (Assay #1 residual NADPH detection or Assay #2 CoA detection with CPM dye)
Format: biochemical
Settings: in at least one experimental run; tested generally according to the assays described (assay #1 or #2 not specified)
Procedure: FAS assay FAS activity was measured through one of the two following assays.
Inhibition of FAS activity can be measured based on the detection of residual NADPH substrate after the FAS assay is quenched. This assay is run as a 10 μL endpoint assay in 384-well format, where the reaction contains 20 μM malonyl-CoA, 2 μM acetyl-CoA, 30 μM NADPH and 40 nM FAS in 50 mM sodium phosphate, pH 7.0. The assay is run by sequentially dispensing 5 μl of a malonyl-CoA solution, then enzyme solution (containing the acetyl-CoA, and NADPH) into a black, low volume assay plate (Greiner 784076) pre-dispensed with […] compound solutions in DMSO. The reaction is incubated at ambient temperature for 60 minutes, then quenched with 5 μL of a developing solution composed of 90 μM resazurin, 0.3 IU/ml diaphorase in 50 mM sodium phosphate, pH 7.0. The developed reaction is read on a Molecular Devices Analyst or Acquest (or equivalent) plate reader using a 530 nm excitation wavelength filter, a 580 nm emission filter, and 561 nm dichroic filter. The test compounds are prepared in neat DMSO at a concentration of 10 mM. For inhibition curves, compounds are diluted using a three fold serial dilution and tested at 11 concentrations (e.g. 25 μM-0.42 nM). Curves are analysed using Activityl)ase and XLfit, and results are expressed as pIC50 values.
Inhibition of FAS can also be quantified based on the detection of the CoA products with a thio-reactive coumarin dye. This assay is run as a 10 μL endpoint assay in 384-well format, where the reaction contains 20 μM malonyl-CoA, 20 μM acetyl-CoA, 40 μM NADPH and 2 nM FAS in 50 mM sodium phosphate, pH 7.0, and 0.04% Tween-20. The assay is run by adding 5 μL enzyme solution to a black, low volume assay plate (Greiner 784076) pre-dispensed with 100 nl compound solutions in DMSO. After 30 minutes, 5 μL substrate is added, and the reaction incubated at ambient temperature for an additional 60 minutes. The reaction is then quenched with 10 μL of 6M guanidine-HCl containing 50 μM CPM (7-diethylamino-3-(4′-maleimidylphenyl)-4-methylcoumarin (CPM; thio-reactive dye), and incubated for 30 minutes. The plate is read on an Envision (PerkinElmer) or equivalent plate reader using a 380 nm excitation wavelength filter, and a 486 nm emission filter. Data fitting and compound preparations are done as described above.

Chain of FAS (P49327 whole entry): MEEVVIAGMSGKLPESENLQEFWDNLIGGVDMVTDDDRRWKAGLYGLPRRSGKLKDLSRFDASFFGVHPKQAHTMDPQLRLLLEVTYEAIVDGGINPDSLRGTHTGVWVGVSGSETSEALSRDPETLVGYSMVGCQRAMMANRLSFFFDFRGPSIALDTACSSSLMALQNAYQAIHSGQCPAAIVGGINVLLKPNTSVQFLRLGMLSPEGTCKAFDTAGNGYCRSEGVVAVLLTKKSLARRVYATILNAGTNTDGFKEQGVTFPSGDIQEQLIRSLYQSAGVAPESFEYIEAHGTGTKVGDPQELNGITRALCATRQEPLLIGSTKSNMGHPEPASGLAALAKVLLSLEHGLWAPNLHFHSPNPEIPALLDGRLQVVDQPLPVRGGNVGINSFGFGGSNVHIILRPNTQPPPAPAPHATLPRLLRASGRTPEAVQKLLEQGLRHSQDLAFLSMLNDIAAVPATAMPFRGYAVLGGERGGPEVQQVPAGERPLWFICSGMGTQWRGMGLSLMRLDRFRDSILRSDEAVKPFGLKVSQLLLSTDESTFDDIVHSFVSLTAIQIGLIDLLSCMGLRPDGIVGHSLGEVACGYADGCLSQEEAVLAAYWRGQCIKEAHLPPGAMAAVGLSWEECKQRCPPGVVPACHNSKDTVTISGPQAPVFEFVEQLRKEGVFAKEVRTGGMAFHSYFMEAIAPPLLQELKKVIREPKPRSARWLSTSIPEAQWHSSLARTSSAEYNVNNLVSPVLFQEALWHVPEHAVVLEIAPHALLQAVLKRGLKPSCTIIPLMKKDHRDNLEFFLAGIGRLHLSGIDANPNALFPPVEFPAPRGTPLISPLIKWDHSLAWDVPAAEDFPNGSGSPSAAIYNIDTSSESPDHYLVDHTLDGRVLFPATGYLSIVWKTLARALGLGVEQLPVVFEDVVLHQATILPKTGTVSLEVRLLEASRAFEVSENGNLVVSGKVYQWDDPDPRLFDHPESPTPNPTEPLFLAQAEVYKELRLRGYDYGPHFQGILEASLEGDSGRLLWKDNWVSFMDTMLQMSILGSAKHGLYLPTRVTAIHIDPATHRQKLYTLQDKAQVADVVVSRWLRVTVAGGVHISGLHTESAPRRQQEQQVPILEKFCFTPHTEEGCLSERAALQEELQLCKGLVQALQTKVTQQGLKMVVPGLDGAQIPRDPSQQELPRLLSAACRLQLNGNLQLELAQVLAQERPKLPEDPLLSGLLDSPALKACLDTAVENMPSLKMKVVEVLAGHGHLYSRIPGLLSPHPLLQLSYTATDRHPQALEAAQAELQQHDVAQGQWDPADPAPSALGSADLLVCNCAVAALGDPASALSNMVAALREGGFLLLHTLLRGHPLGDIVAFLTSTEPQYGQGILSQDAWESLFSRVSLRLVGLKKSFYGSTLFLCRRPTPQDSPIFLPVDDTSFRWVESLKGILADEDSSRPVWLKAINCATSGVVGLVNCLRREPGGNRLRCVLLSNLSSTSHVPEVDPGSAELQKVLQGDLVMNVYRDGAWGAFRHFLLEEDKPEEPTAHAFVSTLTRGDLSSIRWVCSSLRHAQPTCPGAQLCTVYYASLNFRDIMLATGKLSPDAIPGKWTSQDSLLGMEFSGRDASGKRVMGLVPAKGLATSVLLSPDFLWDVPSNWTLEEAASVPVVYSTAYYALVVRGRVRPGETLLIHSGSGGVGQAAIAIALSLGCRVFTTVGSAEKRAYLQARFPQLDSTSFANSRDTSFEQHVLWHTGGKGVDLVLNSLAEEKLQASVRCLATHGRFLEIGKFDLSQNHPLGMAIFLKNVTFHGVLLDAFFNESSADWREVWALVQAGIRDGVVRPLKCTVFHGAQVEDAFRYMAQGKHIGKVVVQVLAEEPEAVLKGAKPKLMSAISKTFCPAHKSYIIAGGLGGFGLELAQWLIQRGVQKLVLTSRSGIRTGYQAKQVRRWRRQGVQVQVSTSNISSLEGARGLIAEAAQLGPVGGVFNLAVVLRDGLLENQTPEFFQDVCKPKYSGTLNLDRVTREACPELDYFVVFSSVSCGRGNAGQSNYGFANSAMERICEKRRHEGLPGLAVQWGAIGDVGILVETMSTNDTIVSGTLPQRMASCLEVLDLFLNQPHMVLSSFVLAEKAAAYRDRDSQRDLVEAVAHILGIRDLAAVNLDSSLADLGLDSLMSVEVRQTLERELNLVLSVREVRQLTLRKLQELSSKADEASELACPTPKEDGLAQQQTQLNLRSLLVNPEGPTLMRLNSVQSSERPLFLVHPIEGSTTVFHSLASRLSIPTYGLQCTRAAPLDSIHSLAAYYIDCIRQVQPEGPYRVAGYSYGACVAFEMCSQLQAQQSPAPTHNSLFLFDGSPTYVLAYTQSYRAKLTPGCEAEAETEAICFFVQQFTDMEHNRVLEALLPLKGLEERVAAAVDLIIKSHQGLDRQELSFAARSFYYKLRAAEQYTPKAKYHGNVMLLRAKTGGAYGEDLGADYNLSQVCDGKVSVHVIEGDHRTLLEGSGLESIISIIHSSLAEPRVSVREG

In order of rising IC50:
1. O=C(C1CC1)N1CC[C@@H](Cn2c(-c3ccc(-c4ccc5cc[nH]c5c4)cc3)nc3cccnc32)C1 [Example 35, 3-{[(3S)-1-(cyclopropylcarbonyl)-3-pyrrolidinyl]methyl}-2-[4-(1H-indol-6-yl)phenyl]-3H-imidazo[4,5-b]pyridine]  9 nM
2. O=C(C1CC1)N1CC[C@@H](Cn2c(-c3ccc(-c4ccc5scnc5c4)cc3)nc3cnccc32)C1 [Example 58, 2-[4-(1,3-benzothiazol-5-yl)phenyl]-1-{[(3S)-1-(cyclopropylcarbonyl)-3-pyrrolidinyl]methyl}-1H-imidazo[4,5-c]pyridine]  10 nM
3. O=C(C1CC1)N1CC[C@@H](Cn2c(-c3ccc(-c4cccc5[nH]ccc45)cc3)nc3cnccc32)C1 [Example 55, 1-{[(3S)-1-(cyclopropylcarbonyl)-3-pyrrolidinyl]methyl}-2-[4-(1H-indol-4-yl)phenyl]-1H-imidazo[4,5-c]pyridine]  13 nM
4. O=C(C1CC1)N1CC[C@@H](Cn2c(-c3ccc(-c4ccc5[nH]ccc5c4)cc3)nc3cnccc32)C1 [Example 25, 1-{[(3S)-1-(cyclopropylcarbonyl)-3-pyrrolidinyl]methyl}-2-[4-(1H-indol-5-yl)phenyl]-1H-imidazo[4,5-c]pyridine]  19 nM
5. COc1ccc(-c2ccc(-c3nc4cccnc4n3C[C@@H]3CCN(C(=O)C4CC4)C3)cc2)cc1 [Example 27, 3-{[(3S)-1-(cyclopropylcarbonyl)-3-pyrrolidinyl]methyl}-2-[4′-(methyloxy)-4-biphenylyl]-3H-imidazo[4,5-b]pyridine]  45 nM
6. O=C(C1CC1)N1CC[C@@H](Cn2c(-c3ccc(-c4ccc5occc5c4)cc3)nc3cnccc32)C1 [Example 22, 2-[4-(1-benzofuran-5-yl)phenyl]-1-{[(3S)-1-(cyclopropylcarbonyl)-3-pyrrolidinyl]methyl}-1H-imidazol[4,5-c]pyridine]  60 nM
7. Cc1cccc(-c2ccc(-c3nc4ncccc4n3C[C@@H]3CCN(C(=O)C4CC4)C3)cc2)c1 [Example 2, 1-{[(3S)-1-(cyclopropylcarbonyl)-3-pyrrolidinyl]methyl}-2-(3′-methyl-4-biphenylyl)-1H-imidazo[4,5-b]pyridine]  63 nM
8. O=C(C1CC1)N1CC[C@@H](Cn2c(-c3ccc(-c4ccccc4)cc3)nc3c(Cl)ncnc32)C1 [Example 46, 8-(4-biphenylyl)-6-chloro-9-{[(3S)-1-(cyclopropylcarbonyl)-3-pyrrolidinyl]methyl}-9H-purine]  129 nM
9. O=C(C1CC1)N1CC[C@@H](Cn2c(-c3ccc(-c4cnc5[nH]ccc5c4)cc3)nc3cnccc32)C1 [Example 54, 1-{[(3S)-1-(cyclopropylcarbonyl)-3-pyrrolidinyl]methyl}-2-[4-(1H-pyrrolo[2,3-b]pyridin-5-yl)phenyl]-1H-imidazo[4,5-c]pyridine]  142 nM
10. CN(C)C(=O)N1CC[C@@H](Cn2c(-c3ccc(-c4ccccc4)cc3)nc3cnccc32)C1 [Example 19, (3S)-3-{[2-(4-biphenylyl)-1H-imidazo[4,5-c]pyridin-1-yl]methyl}-N,N-dimethyl-1-pyrrolidinecarboxamide]  1060 nM
